This is an account of results in patent publication US10526317B2, “Benzocyanine compounds” (PIERCE BIOTECHNOLOGY, INC., priority 2012, dated 2020).

Entries after “also recorded” stand apart in the source; their conditions may differ.

Data set [1] in a line: Dye toxicity, H&E histology of heart, liver, spleen, lungs, kidney. Format: in vivo. The note with it: H&E staining of tissues after 24 h. The procedure: After the final time point, animals were sacrificed and their organs collected for ex vivo imaging to confirm and quantify dye accumulation in tumors, tissues, and other organs such as heart, liver, spleen, GI tract, lungs, and kidney. Images were taken before (pre), and at 0 min, 10 min, 30 min, 1 hour, 3 hour, 6 hour, 12 hour, and 24 hour post injection. To test dye toxicity, heart, liver, spleen, lungs and kidney tissues were gathered from one mouse from each cohort, fixed, stained with hematoxylin and eosin (H&E), and evaluated.
Colorimetric images were acquired at 20× on a Nikon 90i microscope.

Data set [2] can be described thus: Photobleaching without anti-fade, U2OS cells stained with lamin B1/dye-conjugated GAR. The format is physicochemical. The protocol: Photobleaching of inventive and commercial compounds without anti-fade reagent was examined. U2OS cells stained with lamin B1/dye-conjugated GAR were exposed to bright light (3.4V) for 8 sec at intervals of 1 sec, the overall capture amounting to a total of about 15 min using the TR filter Obj.: 20× NA: 0.4 on the Zeiss Axio Observer .Z1 microscope. The image stacks collected from the time-lapse experiment were analyzed using ImageJ software to determine the decay rate of fluorescence intensity. The raw intensity was normalized to initial intensity for each conjugate and the photobleaching curve was plotted against time, as shown in FIG. 48. Immunostaining with 679 Compound 4/4 conjugate had shown about 2 to 3-fold brighter staining intensity compared to DyLight 680 Dye.

The nature of data set [3]: Absorption/emission profiles and spectral properties of the dyes. Format: physicochemical. The protocol:
The following properties of 679 Compound 1-NHS were compared with commercially available dyes.
Emission/excitation profiles for inventive and commercial compounds was determined by reconstituting the compounds in DMF at 10 mg/ml and then diluting in PBS buffer pH 7.2 to 10 μg/ml. Absorbance spectra were collected on Cary UV spectrophotometer and emission spectra were collected on Tecan Safire, shown in FIG. 1 where solid lines represent absorbance spectra and dashed lines represent emission spectra, for DyLight 680-NHS (purple), DyLight 680B-NHS (blue), 679 Compound 1-NHS (red), and Company B Compound-NHS (black). The maximum absorbance and emission for each compound is shown below.
The following properties of 679 Compound 1-NHS, 679 Compound 4/4-NHS (V08-15173), and 679 Compound 4/4-NHS (V10-04152) were compared with commercially available dyes.

The subject of another data set is lamin A. As to the kind of experiment: Immunofluorescence of nuclear envelope in U2OS cells, mouse anti-lamin A, dye-GAM (FIG. 43). To be noted: FIG. 43A. The format is cell-based, human. The procedure: U2OS (human bone cancer) or HeLa cells were seeded at 5,000 cells per well in 96-well plates and incubated for 18-20 hours at 37° C., 5% CO2 in a humidified incubator. The cells were fixed with 4% paraformaldehyde and permeabilized with 0.1% Thermo Scientific Surfact-Amps X-100 Detergent, then blocked for nonspecific IgG binding. Cells were incubated with a target-specific primary antibody for 30 minutes at room temperature (RT). After washing with PBS containing 0.05% Tween™-20 Detergent Solution, cells were incubated for 30 minutes at RT with 4 μg/mL of the appropriate secondary antibody conjugated with 679 Compound 4/4 and compared to similarly conjugated counterparts (DyLight 680, Alexa Fluor™ 680, and CF™ 680 Dyes) for 30 minutes at RT. The conjugates were affinity purified goat anti-mouse IgG (H+L) (GAM) or goat anti-rabbit IgG (H+L) (GAR). […] Microscopy time lapse experiments to measure dye photostability were performed using the appropriate shift-free optical filter set with a 40×/1.3 oil objective on a Zeiss Axio Observer™ .Z1 fluorescence microscope using an ORCA-ER-1394 Hamamatsu, CCD Digital Camera and the AxioVison™ Release 4.7 Software. […]
The nuclear envelop in U2OS cells was fluorescently labeled with mouse anti-lamin A primary antibody and detected with goat anti-mouse conjugated to 679 Compound 4/4-NHS, DyLight 680-NHS, Alexa Fluor 680-NHS and CF 680-SE Dyes. […]

Data set [4] in a line: In vivo biodistribution and clearance of free dye. Also on record: species or system nude mice. The note with it: 100 μL of 1 mg/mL hydrolyzed dye IV via retro orbital plexus, imaged to 24 h. The protocol:
In in vivo biodistribution, the mice received intravenous dye injections via the retro orbital plexus and were imaged on a Carestream MSFX Imager (690 nm excitation/750 nm emission) before injection and at 0 h, 3 h, 6 h, 12 h, and 24 h post injection. After the final time point, animals were sacrificed and organs were collected for ex vivo imaging. Toxicity was evaluated by investigating the dissected tissue section.
Biodistribution and clearance was investigated in the live animals over time by measuring the clearance or specific retention of the dye/labeled target. Experiments were performed in triplicate on nude mice. 100 μL of 1 mg/mL hydrolyzed dye solution was IV injected via the retro orbital plexus. Animals were imaged using 690 nm excitation and 750 nm emission at 140 mm FOV on a Carestream XTREME (10 s) Imager. Images taken before (pre) and at 0 min, 10 min, 30 min, 1 hour, 3 hour, 6 hour, 12 hour and 24 hours post injection are shown in FIG. 44B. After the final time point, the organs were collected for ex vivo imaging to confirm and quantify accumulation of the agent in tumors, tissues, and other organs (heart, liver, spleen, GI tract, lungs and kidney), as shown in FIG. 44C using triplicate mice. 679 Compound 4/4 allowed for probe conjugation, high fluorescence with excellent sensitivity for deep-tissue in vivo imaging, and target quantification in tissues.

On to `COCCOCCOCCOCC[N+]1=C(/C=C/C=C/C=C2/N(CCOCCOCCOCCOCCC(=O)O)c3ccc4c(S(=O)(=O)[O-])cc(S(=O)(=O)O)cc4c3C2(C)CCOCCOCCOCCOC)C(C)(CCOCCOCCOCCOC)c2c1ccc1c(S(=O)(=O)O)cc(S(=O)(=O)O)cc21` (stereo not shown) [679 Compound 4/4], for which the “toxicity (in words)” value in data set [1] was “low intrinsic toxicity; also recorded: No tissue damage was observed from histology”. Also, the “photostability (in words)” value in data set [2] (absence of anti-fade agent) is “slightly less stable than DyLight 680 dye”. Further, the “staining intensity, fold brighter compared to DyLight 680 Dye” value in data set [2] (immunostaining) lay within 2 to 3 fold. In data set [3], this molecule gave an emits at of 706 nm and an excites at of 684 nm. Further, the “staining intensity, fold brighter compared to DyLight 680-GAM, Alexa Fluor 680-GAM and CF 680-GAM” value with lamin A was 2-3 fold. For the same molecule, the “biodistribution and clearance (in words)” value in data set [4] is “rapid clearance through kidney and/or gastrointestinal tract; also recorded: fast whole-body dye uptake and displayed rapid dye clearance mainly through the kidney and GI tract”.
